Test: xn = mol fraction of the nth substance listed

CCCC[P+](CCCC)(CCCC)CCCC.[Br-] + O
Conditions | viscosity [mPa·s]
308.15 K, 101 kPa, x1 = 0.08254 | 6.085

CC[N+](CC)(CC)CC.[Br-] + O
298.15 K, 101 kPa
Conditions | viscosity [mPa·s]
x1 = 0.0009 | 0.8894
x1 = 0.0089 | 1.059
x1 = 0.0177 | 1.314
x1 = 0.0348 | 2.397

CNC(C)=O + O
viscosity [mPa·s]
Conditions | 303.18 K | 308.15 K | 313.15 K | 318.15 K
101 kPa, x2 = 0.0402 | 3.71 | – | – | –
101 kPa, x2 = 0.1032 | 3.81 | – | – | –
101 kPa, x2 = 0.2124 | 4.02 | – | – | –
101 kPa, x2 = 0.3814 | 4.33 | – | – | –
101 kPa, x2 = 0.455 | 4.42 | – | – | –
101 kPa, x2 = 0.5528 | 4.37 | – | – | –
101 kPa, x2 = 0.7092 | 3.7 | – | – | –
101 kPa, x2 = 0.8121 | 2.89 | – | – | –
101.33 kPa, x1 = 0.0301 | – | 0.997 | 0.893 | 0.812
101.33 kPa, x1 = 0.06 | – | 1.293 | 1.137 | 1.026
101.33 kPa, x1 = 0.1002 | – | 1.693 | 1.465 | 1.301
101.33 kPa, x1 = 0.15 | – | 2.24 | 1.902 | 1.651
101.33 kPa, x1 = 0.1999 | – | 2.766 | 2.326 | 2.001
101.33 kPa, x1 = 0.245 | – | 3.108 | 2.626 | 2.257
101.33 kPa, x1 = 0.3006 | – | 3.402 | 2.882 | 2.483
101.33 kPa, x1 = 0.3502 | – | 3.597 | 3.063 | 2.646
101.33 kPa, x1 = 0.4012 | – | 3.748 | 3.198 | 2.769
101.33 kPa, x1 = 0.4501 | – | 3.852 | 3.3 | 2.859
101.33 kPa, x1 = 0.5 | – | 3.921 | 3.37 | 2.914
101.33 kPa, x1 = 0.5502 | – | 3.942 | 3.398 | 2.938
101.33 kPa, x1 = 0.6018 | – | 3.906 | 3.382 | 2.928
101.33 kPa, x1 = 0.655 | – | 3.825 | 3.327 | 2.894
101.33 kPa, x1 = 0.7019 | – | 3.765 | 3.281 | 2.869
101.33 kPa, x1 = 0.7551 | – | 3.688 | 3.226 | 2.832
101.33 kPa, x1 = 0.807 | – | 3.606 | 3.167 | 2.797
101.33 kPa, x1 = 0.845 | – | 3.554 | 3.13 | 2.768
101.33 kPa, x1 = 0.9015 | – | 3.495 | 3.077 | 2.733
101.33 kPa, x1 = 0.95 | – | 3.44 | 3.044 | 2.703

NCC(=O)NCC(=O)NCC(=O)O + O
viscosity [mPa·s]
Conditions | 298.15 K | 303.15 K | 308.15 K | 313.15 K | 318.15 K
100 kPa, x1 = 0.0008998 | 0.9044 | 0.8108 | 0.7322 | 0.6656 | 0.6079
100 kPa, x1 = 0.001798 | 0.9128 | 0.8191 | 0.7406 | 0.6738 | 0.6157
100 kPa, x1 = 0.002695 | 0.9213 | 0.8272 | 0.7481 | 0.6812 | 0.6229
100 kPa, x1 = 0.00359 | 0.9287 | 0.8347 | 0.7552 | 0.6885 | 0.6298
100 kPa, x1 = 0.004483 | 0.9364 | 0.8418 | 0.7623 | 0.6953 | 0.6366
100 kPa, x1 = 0.005375 | 0.9426 | 0.8482 | 0.7691 | 0.7018 | 0.6429
100 kPa, x1 = 0.006266 | 0.95 | 0.8548 | 0.7757 | 0.7082 | 0.6492
100 kPa, x1 = 0.007154 | 0.9566 | 0.8615 | 0.7818 | 0.7147 | 0.6552
101 kPa, x1 = 0.000199 | 0.8947 | – | 0.7233 | – | 0.5994
101 kPa, x1 = 0.000396 | 0.8988 | – | 0.7269 | – | 0.6027
101 kPa, x1 = 0.0006084 | 0.9032 | – | 0.7307 | – | 0.6058
101 kPa, x1 = 0.0007854 | 0.9075 | – | 0.7343 | – | 0.6087
101 kPa, x1 = 0.001106 | 0.9149 | – | 0.7403 | – | 0.6138
101 kPa, x1 = 0.001839 | 0.9325 | – | 0.7547 | – | 0.6255
101 kPa, x1 = 0.002563 | 0.9511 | – | 0.7694 | – | 0.637
101 kPa, x1 = 0.003356 | 0.9729 | – | 0.7857 | – | 0.6495
101 kPa, x1 = 0.0046 | 1.01 | – | 0.8123 | – | 0.6694

O=S(=O)([O-])c1ccc(Cl)cc1.[Na+] + O
viscosity [mPa·s], 101 kPa
Conditions | x1 = 9e-05 | x1 = 0.00018 | x1 = 0.0009 | x1 = 0.0018 | x1 = 0.00448 | x1 = 0.00893 | x1 = 0.0133 | x1 = 0.0177
298.15 K | 0.899 | 0.9 | 0.916 | 0.939 | 1 | 1.103 | 1.219 | –
318.15 K | 0.598 | 0.599 | 0.608 | 0.623 | 0.659 | 0.723 | 0.793 | 0.869

C=C(C)C(=O)OCCO + O=C1CCCCC1
viscosity [mPa·s], 101 kPa
Conditions | x2 = 0.1 | x2 = 0.2 | x2 = 0.3 | x2 = 0.4 | x2 = 0.5 | x2 = 0.6 | x2 = 0.6999 | x2 = 0.8 | x2 = 0.9
298.15 K | 5.035 | 4.22 | 3.579 | 3.213 | 2.928 | 2.661 | 2.319 | 2.089 | 2.06
308.15 K | 3.747 | 3.184 | 2.768 | 2.512 | 2.282 | 2.045 | 1.856 | 1.707 | 1.695
318.15 K | 2.881 | 2.474 | 2.2 | 2.012 | 1.853 | 1.678 | 1.54 | 1.439 | 1.421

CCOCCO + O=C1CCCCC1
298.15 K, 101 kPa
Conditions | viscosity [mPa·s]
x2 = 0.0926 | 1.684
x2 = 0.1867 | 1.587
x2 = 0.2824 | 1.529
x2 = 0.3797 | 1.494
x2 = 0.4787 | 1.469
x2 = 0.5793 | 1.472
x2 = 0.6818 | 1.506
x2 = 0.786 | 1.564
x2 = 0.892 | 1.691

CCOCCO + O=C1CCCO1
303.15 K, 101.33 kPa
Conditions | viscosity [mPa·s]
x1 = 0.0345 | 1.722
x1 = 0.0509 | 1.708
x1 = 0.0767 | 1.687
x1 = 0.1125 | 1.658
x1 = 0.2033 | 1.603
x1 = 0.3137 | 1.561
x1 = 0.4404 | 1.544
x1 = 0.5421 | 1.538
x1 = 0.6504 | 1.535
x1 = 0.8807 | 1.541
x1 = 0.9372 | 1.538
x1 = 0.9693 | 1.553

CNC(C)=O + O=C1CCCO1
viscosity [mPa·s], 101 kPa
Conditions | x1 = 0.0549 | x1 = 0.1816 | x1 = 0.2715 | x1 = 0.3602 | x1 = 0.4477 | x1 = 0.5352 | x1 = 0.6411 | x1 = 0.7239 | x1 = 0.9033
303.15 K | 1.516 | 1.586 | 1.642 | 1.719 | 1.82 | 1.99 | 2.215 | 2.45 | 3.147
308.15 K | 1.408 | 1.452 | 1.51 | 1.572 | 1.662 | 1.78 | 1.979 | 2.178 | 2.799
313.15 K | 1.338 | 1.343 | 1.393 | 1.447 | 1.521 | 1.626 | 1.805 | 1.967 | 2.515
318.15 K | 1.213 | 1.247 | 1.281 | 1.334 | 1.403 | 1.514 | 1.665 | 1.8 | 2.226

Oc1ccc(Cl)cc1 + O=Cc1ccccc1
308.15 K, 101.33 kPa
Conditions | viscosity [mPa·s]
x2 = 0.11 | 5.75
x2 = 0.304 | 3.8
x2 = 0.485 | 3.01
x2 = 0.56 | 2.495
x2 = 0.62 | 2.2
x2 = 0.728 | 1.79
x2 = 0.907 | 1.388

CCOCCO + O=S1(=O)CCCC1
303.15 K
Conditions | viscosity [mPa·s]
101 kPa, x2 = 0.0459 | 1.145
101 kPa, x2 = 0.1045 | 0.887
101 kPa, x2 = 0.1957 | 0.692
101 kPa, x2 = 0.2957 | 0.877
101 kPa, x2 = 0.3504 | 1.721
101 kPa, x2 = 0.3966 | 2.176
101 kPa, x2 = 0.4471 | 2.684
101 kPa, x2 = 0.4987 | 3.644
101 kPa, x2 = 0.5514 | 4.636
101 kPa, x2 = 0.5999 | 5.66
101 kPa, x2 = 0.6984 | 6.898
101 kPa, x2 = 0.8002 | 8.224
101 kPa, x2 = 0.8997 | 9.136
101.33 kPa, x1 = 0.042 | 8.909
101.33 kPa, x1 = 0.0712 | 7.997
101.33 kPa, x1 = 0.109 | 7.117
101.33 kPa, x1 = 0.1849 | 5.742
101.33 kPa, x1 = 0.2899 | 4.443
101.33 kPa, x1 = 0.3942 | 3.612
101.33 kPa, x1 = 0.5561 | 2.759
101.33 kPa, x1 = 0.6236 | 2.472
101.33 kPa, x1 = 0.6586 | 2.349
101.33 kPa, x1 = 0.7385 | 2.108
101.33 kPa, x1 = 0.7622 | 2.027
101.33 kPa, x1 = 0.8406 | 1.843
101.33 kPa, x1 = 0.9162 | 1.688
101.33 kPa, x1 = 0.9539 | 1.619

CCOCCO + O=[N+]([O-])c1ccccc1
298.15 K, 101 kPa
Conditions | viscosity [mPa·s]
x2 = 0.0476 | 1.852
x2 = 0.1095 | 1.858
x2 = 0.2104 | 1.873
x2 = 0.3134 | 1.893
x2 = 0.4103 | 1.916
x2 = 0.4566 | 1.925
x2 = 0.5011 | 1.932
x2 = 0.5459 | 1.936
x2 = 0.6004 | 1.94
x2 = 0.7008 | 1.937
x2 = 0.8017 | 1.921
x2 = 0.8989 | 1.887
x2 = 0.9525 | 1.853

Cc1cccc(Cl)c1 + OC1CCCCC1
303.15 K, 101 kPa
Conditions | viscosity [mPa·s]
x2 = 0.1126 | 5.006
x2 = 0.222 | 9.158
x2 = 0.3285 | 13.26
x2 = 0.4321 | 17.37
x2 = 0.533 | 21.44
x2 = 0.6313 | 25.48
x2 = 0.727 | 29.41
x2 = 0.8203 | 33.31
x2 = 0.9113 | 37.2

CC(C)CCO + OCC(O)CO
viscosity [mPa·s], 100 kPa
Conditions | x1 = 0.0692 | x1 = 0.1425 | x1 = 0.2195 | x1 = 0.3027 | x1 = 0.3954 | x1 = 0.498 | x1 = 0.6042 | x1 = 0.7235 | x1 = 0.8535
298.15 K | 879.2 | 810.7 | 738.6 | 660.6 | 573.7 | 477.4 | 377.4 | 265 | 142.2
303.15 K | 583.7 | 540.5 | 494.2 | 443.9 | 387.3 | 323.9 | 257.5 | 181.7 | 97.82
308.15 K | 389.9 | 363 | 333.5 | 301.1 | 263.5 | 220.7 | 175.6 | 123.8 | 67.02

CC(C)CCO + OCCCCO
viscosity [mPa·s], 100 kPa
Conditions | x1 = 0.0812 | x1 = 0.1634 | x1 = 0.2525 | x1 = 0.3428 | x1 = 0.4555 | x1 = 0.5459 | x1 = 0.6484 | x1 = 0.7582 | x1 = 0.8761
298.15 K | 67.45 | 62.1 | 56.19 | 50.09 | 42.34 | 36.04 | 28.79 | 20.97 | 12.53
303.15 K | 53.11 | 49.29 | 45.07 | 40.5 | 34.55 | 29.64 | 23.86 | 17.53 | 10.61
308.15 K | 42.18 | 39.46 | 36.34 | 32.86 | 28.33 | 24.49 | 19.94 | 14.75 | 9.039
